pIC50, pKd: −log10 of the molar value.
Assays:
Hsp70 = target: T1, Hsp70 (Homo sapiens, UniProt P0DMV8); experiment: Measurement of affinity between compounds and Hsp70 (SPR, BIACORE T100); format: binding
T1 construct: purchased Enzo Life Sciences ADI-ESP-550-D
Experimental: Instrument for measuring the affinity between Example compounds and Hsp70 is BIACORE T100 Biomolecular Interaction Analysis (GE, USA), and the positive control drug is VER-155008 that is well-recognized as Hsp70 inhibitor now, and, on the basis of the measured results, according to binding characteristics between the compounds and protein, the binding constant (equilibrium dissociation constant KD) between drugs and protein is calculated by selecting steady state model with the formula: Conc*Rmax/[conc+KD]+offset.
1. Instrument: BIACORE T100 Biomolecular Interaction Analysis (GE, USA)
2. Reagents: PBS Buffer (×10), P20, CM5 chip (GE, USA), Hsp70 (human, ADI-ESP-550-D), manufactured by Enzo Life Sciences.
30 mM mother liquor of the compound was formulated with DMSO, which was diluted to 2 mM application solution with DMSO before use. 5 μl of the application solution was taken and diluted with 95 μl 1.05×PBS to 100 μM, and then diluted in turn with PBS containing 5% DMSO to […]. PBS containing 5% DMSO was used as solvent control.
Hsp70 protein was diluted with 10 mmol/L sodium acetate buffer solution (pH 5.0) to 30 μg/ml, and coupled directly on a hydrophilic carboxylmethyl dextran matrix sensor chip M5 through normalized primary amine coupling reaction, RU=11209, and then the chip was balanced for 1-2 h with PBS Buffer at […].
At a flow rate of […], with PBS containing 5% DMSO as mobile phase, at 25° C., the compound was introduced in the sequence of 0.003, 0.01, 0.03, 0.1, 0.3, 1, 3 and 10 μM, with binding time of 90 seconds, and dissociation time of 120 seconds.
According to binding characteristics between the compounds and protein, the binding constant (equilibrium dissociation constant KD) between drugs and protein was calculated by selecting steady state model with the formula: Conc*Rmax/[conc+KD]+offset.

BT474 = experiment: Antitumor bioactivity evaluation, breast cancer cells (ATPlite); format: cell-based; conditions: Homo sapiens, BT-474; for inhibition at 5 µM: test sample 5 μM, 72 hours, read-out: Inhibitory Rate % BT474
Outline: (§1)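 5000 cells/well, 24 h adhesion; cpd 5 μM final ± lapatinib 1 μM final; 72 h, 37 °C; ATPlite luminescence; survival % = sample RLU/control RLU ×100; 5 replicate wells.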

MDA-MB-361 = experiment: as above; format: cell-based; conditions: Homo sapiens, test sample 5 μM, 72 hours, read-out: Inhibitory Rate % MDA-MB-361
Outline: as §1

MDA-MB-453 = experiment: as above; format: cell-based; conditions: Homo sapiens, test sample 5 μM, 72 hours, read-out: Inhibitory Rate % MDA-MB-453
Outline: as §1

SK-BR3 = experiment: as above; format: cell-based; conditions: Homo sapiens, SK-BR-3; test sample 5 μM, 72 hours; read-out: Inhibitory Rate % SK-BR3
Outline: as §1

SK/Lap^R1.0 = experiment: as above; format: cell-based; conditions: Homo sapiens; test sample 5 μM, 72 hours; read-out: Inhibitory Rate % SKLap^R1.0
Outline: as §1

[1] = tested on: six human breast cancer cell strains; experiment: Antitumor activity evaluation, statements on the whole panel; format: cell-based; conditions: compound alone
From the text: In antitumor activity evaluation, six human breast cancer cell strains are selected, including BT474, SK-BR3 which are human breast cancer cell strains sensitive to lapatinib, BT/Lap^R1.0, SK/Lap^R1.0 which are human breast cancer cell strains with secondary resistance to lapatinib, MDA-MB-361, MDA-MB-453 which are human breast cancer cell strains with natural resistance tolapatinib.
Antitumor bioactivity evaluation of the compounds of Examples according to the method described below
(§2) Cells plating: a 100 mm culture dish with overgrown adherent cells was digested with 1 ml 0.25% trypsin (GIBCO) at 37° C. for 5 min, and the reaction was terminated with 2 ml culture medium (containing 10% FBS, GIBCO). The cells were scattered and collected, after counting, diluted to 1×10^5 cells/ml, and seeded into a 96-well plate at 50 μl/well, 5000 cells/well, excluding the peripheral circle of wells in which no cell was added, but PBS was added, 60 wells in total, and then incubated at 37° C. for 24 hours for adhering.
Addition of the compound and lapatinib: the test sample was diluted to a final concentration of 5 μM, and the culture medium with the corresponding compound solvent concentration was filled in the control well, the compound solvent concentration was kept consistent in each well, 5 parellel wells were set for each concentration, 25 μl each well, 25 μl culture medium (in combined group, 25 μl lapatinib was added till a final concentration of 1 μM) supplemented, followed by incubation at 37° C. for 72 hours.
(§3) Test after incubation at 37° C. for 72 hours: 50 μL of ATPlite kit substrate solution was added in each well, and vibrated for 3 min, followed by placing aside in darkness for 10 min, and then supernatant 100 μl/well was taken and placed on aluminescence test plate; the luminescence test plate that has been fully incubated was placed in a luminescence test instrument, to read luminescence value.
1. Cell survival rate (%)=Experimental group RLU/control group RLU×100%. The experimental data were subjected to data analysis and processing by utilizing GraphPad software.

[2] = tested on: tumor cells and normal cells (12 kinds of cells); experiment: Extended test against tumor cell lines, statements on the whole panel; format: cell-based; conditions: for inhibition of tumor cells versus cytotoxicity to normal cells: 12 kinds of cells, 0.016-4 μM, 72 hours
Experimental: The compounds of Examples 36/37/40/47/49 were used to carry out extended test against tumor cell lines, wherein 12 kinds of cells were selected, including liver cancer cells, gastric cancer cells, pancreatic cancer cells, colorectal cancer cells, lung cancer cells and normal cells, which were shown in Table 12:
as §2, with “A” for “Cells plating: a”, “54” for “60”
The test sample was diluted to final concentration of 4, 1, 0.25, 0.063, 0.016 μM, culture medium was filled in control well, 3 parellel wells were set for each concentration, 50 μl each well, followed by incubation at 37° C. for 72 hours.
as §3, with “3) Test” for “Test”, “kitsubstrate” for “kit substrate”, “a luminescence” for “aluminescence”
Cell survival rate (%)=Experimental group RLU/control group RLU×100%. The experimental data were subjected to data analysis and processing by utilizing GraphPad software.

T1 sequence (P0DMV8 whole entry): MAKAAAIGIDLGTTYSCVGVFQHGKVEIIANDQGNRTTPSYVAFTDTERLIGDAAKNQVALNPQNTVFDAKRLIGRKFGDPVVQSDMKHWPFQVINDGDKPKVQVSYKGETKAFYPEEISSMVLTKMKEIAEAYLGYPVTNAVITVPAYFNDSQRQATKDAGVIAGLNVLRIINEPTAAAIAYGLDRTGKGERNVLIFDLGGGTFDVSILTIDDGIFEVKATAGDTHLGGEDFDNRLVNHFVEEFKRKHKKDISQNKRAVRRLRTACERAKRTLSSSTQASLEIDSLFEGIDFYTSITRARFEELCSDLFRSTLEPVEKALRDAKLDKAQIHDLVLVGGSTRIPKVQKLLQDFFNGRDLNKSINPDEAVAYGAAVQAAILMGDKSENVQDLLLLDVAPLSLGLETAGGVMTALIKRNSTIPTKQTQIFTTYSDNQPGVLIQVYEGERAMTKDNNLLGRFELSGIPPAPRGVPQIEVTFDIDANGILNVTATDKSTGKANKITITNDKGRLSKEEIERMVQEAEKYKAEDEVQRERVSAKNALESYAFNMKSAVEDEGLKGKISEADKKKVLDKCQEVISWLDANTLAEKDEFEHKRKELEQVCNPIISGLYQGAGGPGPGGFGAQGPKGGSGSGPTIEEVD

Row | SMILES | KD compared with positive control drug VER-155008 (Hsp70) | pKd (Hsp70; steady state model, 25° C., read-out: KD (binding constant between the compounds and Hsp70)) | pIC50 (BT474) | inhibition at 5 µM (BT474) [%] | inhibition at 5 µM (MDA-MB-361) [%] | inhibition at 5 µM (MDA-MB-453) [%] | inhibition at 5 µM (SK-BR3) [%] | inhibition at 5 µM (SK/Lap^R1.0) [%] | growth inhibition to the six human breast cancer cell strains [1] | inhibition of tumor cells versus cytotoxicity to normal cells [2] | effect compared with the compounds of other Examples ([2]; Examples 36/37/40/47/49 compared)
1 | CSc1nccc(N2CCC(N(C)Cc3ccc(C#N)cc3)CC2)n1 [Example 36, N-methyl-N-(4-cyanobenzyl)-N-[1-(2-methylthiopyrimidin-4-yl)piperidin-4-yl]amine] | KD values equivalent to that of the positive control drug VER-155008 | 6.61 | 5.85 | 75.5 | 46.9 | 82.4 | 83.4 | 86.1 | relatively significant growth inhibition | certain inhibition and cytotoxicity to either tumor cells or normal cells, without significant difference | –
2 | CSc1nccc(N2CCC(N(C)Cc3c(F)cccc3Cl)CC2)n1 [Example 37, N-methyl-N-(2-fluoro-6-chlorobenzyl)-N-[1-(2-methylthiopyrimidin-4-yl)piperidin-4-yl]amine] | – | – | 5.98 | 75.5 | 55.9 | 84.2 | 78.9 | 78.3 | relatively significant growth inhibition | slightly stronger inhibition to liver cancer than that to other tumor cells, and exhibited cytotoxicity to normal cells lower than inhibition to tumor cells | –
3 | CSc1nccc(N2CCC(N(C)Cc3ccc(Cl)cc3Cl)CC2)n1 [Example 40, N-methyl-N-(2,4-dichlorobenzyl)-N-[1-(2-methylthiopyrimidin-4-yl)piperidin-4-yl]amine] | – | – | 5.79 | 74.2 | 64.1 | 68.7 | 87.6 | 80.7 | relatively significant growth inhibition | slightly stronger inhibition to liver cancer than that to other tumor cells, and exhibited cytotoxicity to normal cells lower than inhibition to tumor cells | –
4 | CSc1nccc(N2CCC(N(C)Cc3ccccc3Cl)CC2)n1 [Example 47, N-methyl-N-(2-chlorobenzyl)-N-[1-(2-methylthiopyrimidin-4-yl)piperidin-4-yl]amine] | – | – | 5.70 | 60.4 | 27.7 | 66.2 | 31.7 | 16.6 | relatively significant growth inhibition | slightly stronger inhibition to liver cancer than that to other tumor cells, and exhibited cytotoxicity to normal cells lower than inhibition to tumor cells | effect superior to that of the compounds of other Examples
5 | CSc1nccc(N2CCC(N(C)Cc3c(Cl)cccc3Cl)CC2)n1 [Example 49, N-methyl-N-(2,6-dichlorobenzyl)-N-[1-(2-methylthiopyrimidin-4-yl)piperidin-4-yl]amine] | – | – | 6.11 | 61.5 | 30.1 | 68.9 | 19.7 | 13.5 | – | certain inhibition and cytotoxicity to either tumor cells or normal cells, without significant difference | –

Reference: US10023565B2, “N,N′ substituted piperidinamine compounds, and preparation method and usage thereof” (Institute of Pharmacology and Toxicology Academy of …, priority 2013, dated 2018)
